US20240376094A2, “SELECTIVE BCL-XL PROTAC COMPOUNDS AND METHODS OF USE” (Les Laboratoires Servier, priority 2021, published 2024)

Legend:
Assay type in all cases: cell-based
[1] = test system: EBC-1 lung cancer cell line; assay: EBC-1 cell proliferation, CellTiter-Glo assay; conditions: Homo sapiens, 120 h; Ebc-1 cell viability, CTG assay, 5 days of treatment; read-out: CTG 5 day Ebc1 GI50
Method in brief: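 EBC-1 cells seeded at 1000 per well overnight, then exposed to 10-point dilutions (0.508 nM–10 μM final) for 5 days at 37 °C, in triplicate. ATP luminescence by CellTiter-Glo, normalised to untreated wells; GI50 from four-parameter logistic fit, runs valid only with at least one doubling.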

Bcl-xL = biological target: T1, Bcl-xL (Homo sapiens, UniProt Q07817); assay: HCT116 Bcl-xL degradation, capillary-based immunoassay (WES); conditions: for DC50: HCT116, 24 h, 9-point serial dilution; for remaining activity at 0.01 µM / remaining activity at 0.1 µM: HCT-116, 24 h, % of untreated cells; for remaining activity at 0.01 µM: HCT116, 10 nM; for remaining activity at 0.1 µM: HCT116, 100 nM
T1 construct: Measured levels of Bcl-xL protein of HCT116 cells treated with the tested compounds; host or cells: HCT116
Method in brief: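 HCT116 cells treated 24 h with compound at 10/100 nM and/or 9-point dilution (quadruplicates), then lysed. Bcl-xL measured by capillary WES immunoassay, normalized to cofilin and expressed as % of untreated cells. DC50 from four-parameter curve fit.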

MOLT-4 cells = assay: MOLT-4 cell viability, MTT assay; conditions: Homo sapiens, MOLT-4, 48 h
Method in brief: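 MOLT-4 cells in RPMI 1640 with 10% FBS were exposed to compounds for 48 h at 9 concentrations (3.16-fold dilutions, triplicates). After 4 h with MTT and overnight SDS/HCl solubilisation, absorbance was read at 540 nm. IC50 came from four-parameter fits versus control, as the mean of ≥2 independent experiments.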

HiBiT-tagged BCL-xL = biological target: T2, HiBiT-tagged BCL-xL (Homo sapiens, UniProt Q07817); assay: NCI-H1650 BCL-xL protein levels, Nano-Glo HiBiT Lytic Detection; conditions: NCI-H1650 expressing HiBiT-tagged BCL-xL, overnight incubation, read-out: Bcl-xl HIBIT NCIH1650 DC50
T2 construct: expressed in transfected cells; host or cells: NCI-H1650 (ATCC No. CRL-5883), engineered HiBiT cell line
Method in brief: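 NCI-H1650 cells expressing HiBiT-tagged BCL-xL (5000/well) were treated overnight at 37° C with 10 concentrations, final 0.508 nM-10 μM, in triplicate. Remaining BCL-xL measured by Nano-Glo HiBiT lytic luminescence, normalized to untreated cells; 50% values by four-parameter logistic fit.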

T2 sequence (Q07817 whole entry): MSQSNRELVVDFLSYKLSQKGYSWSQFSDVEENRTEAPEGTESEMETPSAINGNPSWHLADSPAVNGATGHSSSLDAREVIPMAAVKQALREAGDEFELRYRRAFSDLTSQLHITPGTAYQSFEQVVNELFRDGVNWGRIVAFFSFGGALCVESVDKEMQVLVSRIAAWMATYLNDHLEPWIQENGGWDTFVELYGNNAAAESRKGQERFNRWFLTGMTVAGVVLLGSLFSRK
T1 sequence (Q07817 whole entry): as above

Row | Structure (SMILES) | GI50 [1] [nM] | DC50 (Bcl-xL) [nM] | remaining activity at 0.01 µM (Bcl-xL) [%] | remaining activity at 0.1 µM (Bcl-xL) [%] | IC50 (MOLT-4 cells) [nM] | DC50 (HiBiT-tagged BCL-xL) [nM]
1 | Cc1ncsc1-c1ccc([C@H](C)NC(=O)C2C[C@@H](O)CN2C(=O)C(NC(=O)CCCCCC(=O)N2CCN(CC#Cc3ccc(OCCCc4sc(N5CCCc6c5nnc(Nc5nc7ccccc7s5)c6C)nc4C(=O)O)c(F)c3)CC2)C(C)(C)C)cc1 (stereo in doubt) [Example 17, 2-[3-(1,3-benzothiazol-2-ylamino)-4-methyl-6,7-dihydro-5H-pyrido[2,3-c]pyridazin-8-yl]-5-[3-[2-fluoro-4-[3-[4-[7-[[(1S)-1-[(2S,4R)-4-hydroxy-2-[[(1S)-1-[4-(4-methylthiazol-5-yl)phenyl]ethyl]carbamoyl]pyrrolidine-1-carbonyl]-2,2-dimethyl-propyl]amino]-7-oxo-heptanoyl]piperazin-1-yl]prop-1-ynyl]phenoxy]propyl] thiazole-4-carboxylic acid] | 31 | 0.488 | 32 | 9 | 3.84 | > 1670
2 | Cc1ncsc1-c1ccc(CNC(=O)[C@@H]2C[C@@H](O)CN2C(=O)[C@@H](NC(=O)C2(F)CC2)C(C)(C)C)c(OCCCCCCCCCCCCN(C)CCOC23CC4(C)CC(C)(CC(Cn5ncc(-c6ccc(N7CCCc8c7nnc(Nc7nc9ccccc9s7)c8C)nc6C(=O)O)c5C)(C4)C2)C3)c1 [Example 139, 6-[3-(1,3-benzothiazol-2-ylamino)-4-methyl-6,7-dihydro-5H-pyrido[2,3-c]pyridazin-8-yl]-3-[1-[[3-[2-[12-[2-[[[(2S,4R)-1-[(2S)-2-[(1-fluorocyclopropanecarbonyl)amino]-3,3-dimethyl-butanoyl]-4-hydroxy-pyrrolidine-2-carbonyl]amino]methyl]-5-(4-methylthiazol-5-yl)phenoxy]dodecyl-methyl-amino]ethoxy]-5,7-dimethyl-1-adamantyl]methyl]-5-methyl-pyrazol-4-yl]pyridine-2-carboxylic acid] | 7 | 0.397 |  |  | 3.52 | 3
3 | Cc1ncsc1-c1ccc([C@H](C)NC(=O)C2C[C@@H](O)CN2C(=O)C(NC(=O)CCCCCCC(=O)N2CCN(CC#Cc3ccc(OCCCc4sc(N5CCCc6c5nnc(Nc5nc7ccccc7s5)c6C)nc4C(=O)O)c(F)c3)CC2)C(C)(C)C)cc1 (stereo in doubt) [Example 16, 2-[3-(1,3-benzothiazol-2-ylamino)-4-methyl-6,7-dihydro-5H-pyrido[2,3-c]pyridazin-8-yl]-5-[3-[2-fluoro-4-[3-[4-[8-[[(1S)-1-[(2S,4R)-4-hydroxy-2-[[(1S)-1-[4-(4-methylthiazol-5-yl)phenyl]ethyl]carbamoyl]pyrrolidine-1-carbonyl]-2,2-dimethyl-propyl]amino]-8-oxo-octanoyl]piperazin-1-yl]prop-1-ynyl]phenoxy]propyl]thiazole-4-carboxylic acid] | 9 | 0.47 | 7 | 7 | 1.07 | 3
4 | Cc1ncsc1-c1ccc([C@H](C)NC(=O)[C@@H]2CC(O)CN2C(=O)[C@@H](NC(=O)CCCCCCCCCCCCCCN(C)CCOC23CC4(C)CC(C)(CC(Cn5ncc(-c6ccc(N7CCCc8c7nnc(Nc7nc9ccccc9s7)c8C)nc6C(=O)O)c5C)(C4)C2)C3)C(C)(C)C)cc1 (stereo in doubt) [Example 7, 6-[3-(1,3-benzothiazol-2-ylamino)-4-methyl-6,7-dihydro-5H-pyrido[2,3-c]pyridazin-8-yl]-3-[1-[[3-[2-[[15-[[(1S)-1-[(2S,4R)-4-hydroxy-2-[[(1S)-1-[4-(4-methylthiazol-5-yl)phenyl]ethyl]carbamoyl]pyrrolidine-1-carbonyl]-2,2-dimethyl-propyl]amino]-15-oxo-pentadecyl]-methyl-amino]ethoxy]-5,7-dimethyl-1-adamantyl]methyl]-5-methyl-pyrazol-4-yl]pyridine-2-carboxylic acid] | 2 | 0.742 | 52 | 34 | 0.493 | 1
5 | Cc1ncsc1-c1ccc([C@H](C)NC(=O)[C@@H]2C[C@@H](O)CN2C(=O)[C@@H](NC(=O)CCCCCCCCCCN(C)CCOC23CC4(C)CC(C)(CC(Cn5ncc(-c6ccc(N7CCCc8c7nnc(Nc7nc9ccccc9s7)c8C)nc6C(=O)O)c5C)(C4)C2)C3)C(C)(C)C)cc1 [Example 135, 6-[3-(1,3-benzothiazol-2-ylamino)-4-methyl-6,7-dihydro-5H-pyrido[2,3-c]pyridazin-8-yl]-3-[1-[[3-[2-[[11-[[(1S)-1-[(2S,4R)-4-hydroxy-2-[[(1S)-1-[4-(4-methylthiazol-5-yl)phenyl]ethyl]carbamoyl]pyrrolidine-1-carbonyl]-2,2-dimethyl-propyl]amino]-11-oxo-undecyl]-methyl-amino]ethoxy]-5,7-dimethyl-1-adamantyl]methyl]-5-methyl-pyrazol-4-yl]pyridine-2-carboxylic acid] | 4 | 0.978 |  |  | 3.51 | 1
6 | Cc1ncsc1-c1ccc([C@H](C)NC(=O)[C@@H]2C[C@@H](O)CN2C(=O)[C@@H](NC(=O)CCCCCCCCCCCCN(C)CCOC23CC4(C)CC(C)(CC(Cn5ncc(-c6ccc(N7CCCc8c7nnc(Nc7nc9ccccc9s7)c8C)nc6C(=O)O)c5C)(C4)C2)C3)C(C)(C)C)cc1 [Example 136, 6-[3-(1,3-benzothiazol-2-ylamino)-4-methyl-6,7-dihydro-5H-pyrido[2,3-c]pyridazin-8-yl]-3-[1-[[3-[2-[[13-[[(1S)-1-[(2S,4R)-4-hydroxy-2-[[(1S)-1-[4-(4-methylthiazol-5-yl)phenyl]ethyl]carbamoyl]pyrrolidine-1-carbonyl]-2,2-dimethyl-propyl]amino]-13-oxo-tridecyl]-methyl-amino]ethoxy]-5,7-dimethyl-1-adamantyl]methyl]-5-methyl-pyrazol-4-yl]pyridine-2-carboxylic acid] | 1 | 2.71 |  |  | 1.45 | 1
7 | Cc1c(Nc2nc3ccccc3s2)nnc2c1CCCN2c1ccc(-c2cnn(CC34CC5(C)CC(C)(C3)CC(OCCN(C)CCCCCCCCCCOc3ccc6c(c3)C(=O)N(C3CCC(=O)NC3=O)C6=O)(C5)C4)c2C)c(C(=O)O)n1 (stereo not shown) [Example 60, 6-[3-(1,3-benzothiazol-2-ylamino)-4-methyl-6,7-dihydro-5H-pyrido[2,3-c]pyridazin-8-yl]-3-[1-[[3-[2-[10-[2-(2,6-dioxo-3-piperidyl)-1,3-dioxo-isoindolin-5-yl]oxydecyl-methyl-amino]ethoxy]-5,7-dimethyl-1-adamantyl]methyl]-5-methyl-pyrazol-4-yl]pyridine-2-carboxylic acid] | 1 | 0.11 | 19 | 23 | 0.717 | > 1670
8 | Cc1cc(N(CCCCCn2cc(CCCCCCCCC(=O)N[C@H](C(=O)N3C[C@H](O)C[C@H]3C(=O)NCc3ccc(-c4scnc4C)cc3)C(C)(C)C)nn2)c2ccc(-c3cnn(CC45CC6(C)CC(C)(C4)CC(OCCN(C)C)(C6)C5)c3C)c(C(=O)O)n2)nnc1Nc1nc2ccccc2s1 [Example 152, 6-[[6-(1,3-benzothiazol-2-ylamino)-5-methyl-pyridazin-3-yl]-[5-[4-[9-[[(1S)-1-[(2S,4R)-4-hydroxy-2-[[4-(4-methylthiazol-5-yl)phenyl]methylcarbamoyl]pyrrolidine-1-carbonyl]-2,2-dimethyl-propyl]amino]-9-oxo-nonyl]triazol-1-yl]pentyl]amino]-3-[1-[[3-[2-(dimethylamino)ethoxy]-5,7-dimethyl-1-adamantyl]methyl]-5-methyl-pyrazol-4-yl]pyridine-2-carboxylic acid] | 121 | 11.4 |  |  | 82.1 | > 1670
9 | Cc1ncsc1-c1ccc(CNC(=O)[C@@H]2C[C@@H](O)CN2C(=O)[C@@H](NC(=O)C2(F)CC2)C(C)(C)C)c(OCCCCCCCCN(C)CCOC23CC4(C)CC(C)(CC(Cn5ncc(-c6ccc(N7CCCc8c7nnc(Nc7nc9ccccc9s7)c8C)nc6C(=O)O)c5C)(C4)C2)C3)c1 [Example 138, 6-[3-(1,3-benzothiazol-2-ylamino)-4-methyl-6,7-dihydro-5H-pyrido[2,3-c]pyridazin-8-yl]-3-[1-[[3-[2-[8-[2-[[[(2S,4R)-1-[(2S)-2-[(1-fluorocyclopropanecarbonyl)amino]-3,3-dimethyl-butanoyl]-4-hydroxy-pyrrolidine-2-carbonyl]amino]methyl]-5-(4-methylthiazol-5-yl)phenoxy]octyl-methyl-amino]ethoxy]-5,7-dimethyl-1-adamantyl]methyl]-5-methyl-pyrazol-4-yl]pyridine-2-carboxylic acid] |  | 21.2 |  |  | 3.31 | > 1670
